Measured values as given in ChEMBL document CHEMBL1240303, “Inhibiting transcription of chromosomal DNA with antigene peptide nucleic acids” (2005).
Active and inactive are the calls of the source. The calls are words filed in the database; no cut-off is given here.

Experiments:
[1] = tested on: T47D; assay: Inhibition of human progesterone receptor A protein expression transfected in human T47D cells at 25 nM by Western blot; assay type: functional, cell-based
[2] = tested on: T47D; assay: Inhibition of human progesterone receptor B protein expression transfected in human T47D cells at 25 nM by Western blot; assay type: functional, cell-based
[3] = tested on: T47D; assay: Inhibition of human progesterone receptor B gene expression transfected in human T47D cells at 200 nM by RT-PCR; assay type: functional, cell-based
[4] = tested on: T47D; assay: Reduction in cell proliferation of human T47D cells expressing human progesterone receptor by FACS method; assay type: functional, cell-based
[5] = tested on: T47D; assay: Induction of morphology changes in human T47D cells expressing human progesterone receptor assessed as increase in cell height by confocal microscopy; assay type: functional, cell-based
[6] = tested on: T47D; assay: Inhibition of human progesterone receptor B protein expression transfected in human T47D cells at 200 nM in presence of 10 nM of estradiol by Western blot; assay type: functional, cell-based
[7] = tested on: T47D; assay: Inhibition of human progesterone receptor A gene expression transfected in human T47D cells at 200 nM by RT-PCR; assay type: functional, cell-based
[8] = tested on: T47D; assay: Inhibition of human progesterone receptor A protein expression transfected in human T47D cells at 200 nM in presence of 10 nM of estradiol by Western blot; assay type: functional, cell-based
[9] = tested on: T47D; assay: Inhibition of human progesterone receptor A protein expression transfected in human T47D cells at 200 nM by Western blot; assay type: functional
[10] = tested on: T47D; assay: Inhibition of human progesterone receptor B protein expression transfected in human T47D cells at 200 nM by Western blot; assay type: functional
[11] = tested on: T47D; assay: Increase in Ezrin mRNA expression in human T47D cells expressing human progesterone receptor by RT-PCR relative to untreated control; assay type: functional

Row | Structure (SMILES) | inhibition [1] | inhibition [2] | inhibition [3] | Activity [4] | Activity [5] | inhibition [6] | inhibition [7] | inhibition [8] | inhibition at 0.2 µM [9] | inhibition at 0.2 µM [10] | fold change (FC) [11] | inhibition [9] | inhibition [10] | Activity [11]
1 | Cc1cn(CC(=O)N(CCNC(=O)CN(CCNC(=O)CNC(=O)[C@H](N)CCCCN)C(=O)Cn2c(N)ccnc2=O)CC(=O)NCCN(CC(=O)NCCN(CC(=O)NCCN(CC(=O)NCCN(CC(=O)NCCN(CC(=O)NCCN(CC(=O)NCCN(CC(=O)NCCN(CC(=O)NCCN(CC(=O)NCCN(C(=O)CNCCN(CC(=O)NCCN(CC(=O)NCCN(CC(=O)NCCN(CC(=O)NCCN(CC(=O)NCCN(CC(=O)NCCN(CC(=O)N[C@@H](CCCCN)C(=O)O)C(=O)Cn2c(N)ccnc2=O)C(=O)Cn2cnc3nc(N)[nH]c(=O)c32)C(=O)Cn2c(N)ccnc2=O)C(=O)Cn2c(N)ccnc2=O)C(=O)Cn2cc(C)c(=O)[nH]c2=O)C(=O)Cn2c(N)ccnc2=O)C(=O)Cn2cnc3c(N)ncnc32)C(=O)Cn2c(N)ccnc2=O)C(=O)Cn2cnc3nc(N)[nH]c(=O)c32)C(=O)Cn2cc(C)c(=O)[nH]c2=O)C(=O)Cn2c(N)ccnc2=O)C(=O)Cn2cnc3c(N)ncnc32)C(=O)Cn2c(N)ccnc2=O)C(=O)Cn2c(N)ccnc2=O)C(=O)Cn2cnc3c(N)ncnc32)C(=O)Cn2cnc3nc(N)[nH]c(=O)c32)C(=O)Cn2cc(C)c(=O)[nH]c2=O)c(=O)[nH]c1=O | inactive | inactive |  |  |  |  |  |  |  |  |  |  |  | 
2 | Cc1cn(CC(=O)N(CCNC(=O)CNC(=O)[C@@H](N)CCCCN)CC(=O)NCCN(CC(=O)NCCN(CC(=O)NCCN(CC(=O)NCCN(CC(=O)NCCN(CC(=O)NCCN(CC(=O)NCCN(CC(=O)NCCN(CC(=O)NCCN(CC(=O)NCCN(CC(=O)NCCN(CC(=O)NCCN(CC(=O)NCCN(CC(=O)NCCN(CC(=O)NCCN(CC(=O)NCCN(CC(=O)NCCN(CC(=O)NCCN(CC(=O)N[C@@H](CCCCN)C(=O)O)C(=O)Cn2ccc(N)nc2=O)C(=O)Cn2cnc3c(=O)[nH]c(N)nc32)C(=O)Cn2cnc3c(=O)[nH]c(N)nc32)C(=O)Cn2cnc3c(N)ncnc32)C(=O)Cn2cnc3c(N)ncnc32)C(=O)Cn2cnc3c(=O)[nH]c(N)nc32)C(=O)Cn2cc(C)c(=O)[nH]c2=O)C(=O)Cn2ccc(N)nc2=O)C(=O)Cn2cnc3c(=O)[nH]c(N)nc32)C(=O)Cn2cnc3c(N)ncnc32)C(=O)Cn2cnc3c(=O)[nH]c(N)nc32)C(=O)Cn2cc(C)c(=O)[nH]c2=O)C(=O)Cn2ccc(N)nc2=O)C(=O)Cn2cnc3c(N)ncnc32)C(=O)Cn2cnc3c(=O)[nH]c(N)nc32)C(=O)Cn2cc(C)c(=O)[nH]c2=O)C(=O)Cn2cnc3c(N)ncnc32)C(=O)Cn2ccc(N)nc2=O)c(=O)[nH]c1=O |  |  | inactive | Active | Active | Active | inactive | Active | 75% | 75% | 6 |  |  | 
3 | Cc1cn(CC(=O)N(CCNC(=O)CNC(=O)[C@@H](N)CCCCN)CC(=O)NCCN(CC(=O)NCCN(CC(=O)NCCN(CC(=O)NCCN(CC(=O)NCCN(CC(=O)NCCN(CC(=O)NCCN(CC(=O)NCCN(CC(=O)NCCN(CC(=O)NCCN(CC(=O)NCCN(CC(=O)NCCN(CC(=O)NCCN(CC(=O)NCCN(CC(=O)NCCN(CC(=O)NCCN(CC(=O)NCCN(CC(=O)NCCN(CC(=O)N[C@@H](CCCCN)C(=O)O)C(=O)Cn2ccc(N)nc2=O)C(=O)Cn2cnc3c(=O)[nH]c(N)nc32)C(=O)Cn2cnc3c(=O)[nH]c(N)nc32)C(=O)Cn2cc(C)c(=O)[nH]c2=O)C(=O)Cn2cnc3c(N)ncnc32)C(=O)Cn2cnc3c(=O)[nH]c(N)nc32)C(=O)Cn2cc(C)c(=O)[nH]c2=O)C(=O)Cn2cc(C)c(=O)[nH]c2=O)C(=O)Cn2cnc3c(=O)[nH]c(N)nc32)C(=O)Cn2cnc3c(N)ncnc32)C(=O)Cn2cnc3c(=O)[nH]c(N)nc32)C(=O)Cn2ccc(N)nc2=O)C(=O)Cn2ccc(N)nc2=O)C(=O)Cn2cnc3c(N)ncnc32)C(=O)Cn2cnc3c(=O)[nH]c(N)nc32)C(=O)Cn2ccc(N)nc2=O)C(=O)Cn2cnc3c(N)ncnc32)C(=O)Cn2ccc(N)nc2=O)c(=O)[nH]c1=O |  |  | inactive | inactive | inactive |  | inactive |  |  |  |  | inactive | inactive | inactive
4 | Cc1cn(CC(=O)N(CCNC(=O)CN(CCNC(=O)CN(CCNCC(=O)N(CCNC(=O)CN(CCNC(=O)CN(CCNC(=O)CN(CCNC(=O)CN(CCNC(=O)CN(CCNC(=O)CN(CCNC(=O)CN(CCNC(=O)CN(CCNC(=O)CN(CCNC(=O)CN(CCNC(=O)CN(CCNC(=O)CNC(=O)[C@@H](N)CCCCN)C(=O)Cn2c(N)ccnc2=O)C(=O)Cn2cnc3c(N)ncnc32)C(=O)Cn2cc(C)c(=O)[nH]c2=O)C(=O)Cn2cnc3nc(N)[nH]c(=O)c32)C(=O)Cn2cnc3c(N)ncnc32)C(=O)Cn2c(N)ccnc2=O)C(=O)Cn2cnc3nc(N)[nH]c(=O)c32)C(=O)Cn2cnc3c(N)ncnc32)C(=O)Cn2c(N)ccnc2=O)C(=O)Cn2cc(C)c(=O)[nH]c2=O)C(=O)Cn2cnc3nc(N)[nH]c(=O)c32)C(=O)Cn2cnc3nc(N)[nH]c(=O)c32)C(=O)Cn2cnc3c(N)ncnc32)C(=O)Cn2c(N)ccnc2=O)CC(=O)NCCN(CC(=O)NCCN(CC(=O)NCCN(CC(=O)NCCN(CC(=O)N[C@@H](CCCCN)C(=O)O)C(=O)Cn2c(N)ccnc2=O)C(=O)Cn2c(N)ccnc2=O)C(=O)Cn2c(N)ccnc2=O)C(=O)Cn2c(N)ccnc2=O)c(=O)[nH]c1=O | Active | Active |  |  |  |  |  |  |  |  |  |  |  | 
5 | Cc1cn(CC(=O)N(CCNC(=O)CN(CCNC(=O)CN(CCNC(=O)CN(CCNC(=O)CN(CCNC(=O)CN(CCNC(=O)CN(CCNC(=O)CN(CCNC(=O)CN(CCNC(=O)CN(CCNC(=O)CN(CCNC(=O)CN(CCNC(=O)CN(CCNC(=O)CN(CCNC(=O)CN(CCNC(=O)CNC(=O)[C@@H](N)CCCCN)C(=O)Cn2ccc(N)nc2=O)C(=O)Cn2ccc(N)nc2=O)C(=O)Cn2cnc3c(N)ncnc32)C(=O)Cn2cnc3c(=O)[nH]c(N)nc32)C(=O)Cn2cc(C)c(=O)[nH]c2=O)C(=O)Cn2ccc(N)nc2=O)C(=O)Cn2ccc(N)nc2=O)C(=O)Cn2cnc3c(N)ncnc32)C(=O)Cn2ccc(N)nc2=O)C(=O)Cn2cnc3c(N)ncnc32)C(=O)Cn2cnc3c(=O)[nH]c(N)nc32)C(=O)Cn2ccc(N)nc2=O)C(=O)Cn2cc(C)c(=O)[nH]c2=O)C(=O)Cn2cnc3c(=O)[nH]c(N)nc32)CC(=O)NCCN(CC(=O)NCCN(CC(=O)NCCN(CC(=O)NCCN(CC(=O)N[C@@H](CCCCN)C(=O)O)C(=O)Cn2cc(C)c(=O)[nH]c2=O)C(=O)Cn2ccc(N)nc2=O)C(=O)Cn2cnc3c(N)ncnc32)C(=O)Cn2ccc(N)nc2=O)c(=O)[nH]c1=O |  |  | inactive | Active | Active | Active | inactive | Active | 75% | 75% | 3.5 |  |  | 
6 | Cc1cn(CC(=O)N(CCNC(=O)CN(CCNC(=O)CN(CCNC(=O)CN(CCNC(=O)CN(CCNC(=O)CN(CCNC(=O)CNC(=O)[C@@H](N)CCCCN)C(=O)Cn2cc(C)c(=O)[nH]c2=O)C(=O)Cn2cnc3c(=O)[nH]c(N)nc32)C(=O)Cn2cnc3c(N)ncnc32)C(=O)Cn2cnc3c(=O)[nH]c(N)nc32)C(=O)Cn2ccc(N)nc2=O)CC(=O)NCCN(CC(=O)NCCN(CC(=O)NCCN(CC(=O)NCCN(CC(=O)NCCN(CC(=O)NCCN(CC(=O)NCCN(CC(=O)NCCN(CC(=O)NCCN(CC(=O)NCCN(CC(=O)NCCN(CC(=O)NCCN(CC(=O)NCCN(CC(=O)NC(CCCCN)C(=O)O)C(=O)Cn2cc(C)c(=O)[nH]c2=O)C(=O)Cn2cnc3c(=O)[nH]c(N)nc32)C(=O)Cn2cnc3c(=O)[nH]c(N)nc32)C(=O)Cn2cnc3c(=O)[nH]c(N)nc32)C(=O)Cn2cnc3c(N)ncnc32)C(=O)Cn2cnc3c(N)ncnc32)C(=O)Cn2cnc3c(N)ncnc32)C(=O)Cn2ccc(N)nc2=O)C(=O)Cn2cnc3c(=O)[nH]c(N)nc32)C(=O)Cn2cnc3c(=O)[nH]c(N)nc32)C(=O)Cn2cnc3c(N)ncnc32)C(=O)Cn2cnc3c(N)ncnc32)C(=O)Cn2cnc3c(=O)[nH]c(N)nc32)c(=O)[nH]c1=O (stereo partly drawn) |  |  | inactive | Active | Active | Active | inactive | Active | 75% | 75% | 8 |  |  | 
